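Compound exposure: 48 hours, 5 concentrations, 96-well plates. GI50: concentration for 50% inhibition of growth. The concentration for full growth arrest is given as TGI.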
Experiments:
Experiment in all cases: growth of human tumour cells (NCI), 48 h
[1] = system: BT-549 breast
[2] = system: CAKI-1 renal
[3] = system: CCRF-CEM leukemia
[4] = system: HCT-15 colon
[5] = system: HL-60(TB) leukemia
[6] = system: IGROV1 ovarian
[7] = system: NCI-H522 lung
[8] = system: T-47D breast
[9] = system: UO-31 renal
[10] = system: LOX IMVI melanoma

COCCNc1cncc(C(N)=O)c1
TGI [1]: > 100 µM | TGI [2]: > 100 µM | TGI [3]: > 100 µM | TGI [4]: > 100 µM | TGI [5]: > 100 µM | TGI [6]: > 100 µM | TGI [7]: > 100 µM | TGI [8]: > 100 µM | TGI [9]: > 100 µM

CCOC(=O)C1=C(C)NC(c2ccco2)=C(C#N)C1c1cccc([N+](=O)[O-])c1 (stereo not given)
GI50 [1]: 0.153 µM | TGI [1]: 18 µM | GI50 [2]: 0.0223 µM | TGI [2]: 58.4 µM | GI50 [3]: 0.0186 µM | TGI [3]: 32.4 µM | GI50 [6]: 0.0157 µM | TGI [6]: 3.28 µM | GI50 [10]: 0.0587 µM | TGI [10]: 11.9 µM | TGI [7]: 0.0371 µM | GI50 [8]: 20.9 µM | GI50 [9]: 0.14 µM | TGI [9]: 27.9 µM

Cc1cccc2c1[nH]c(=O)c1c3ccccc3cn21
GI50 [1]: 12 µM | TGI [1]: 59.2 µM | GI50 [2]: 2.19 µM | TGI [2]: 8.75 µM | GI50 [3]: 1.2 µM | TGI [3]: 12.6 µM | GI50 [4]: 5.25 µM | TGI [4]: 31.7 µM | GI50 [6]: 3.69 µM | TGI [6]: > 100 µM | GI50 [10]: 6.22 µM | TGI [10]: 18.4 µM | GI50 [7]: 6.52 µM | TGI [7]: 64.1 µM | GI50 [8]: 11.5 µM | TGI [8]: 48.5 µM | GI50 [9]: 5.66 µM | TGI [9]: > 100 µM

C=C1CCC2C3(C)COC(c4ccccc4Cl)OC3CCC2(C)C1/C=C/C1=CCOC1=O (stereo not given)
GI50 [1]: 3.55 µM | TGI [1]: 72.9 µM | GI50 [2]: 4.08 µM | TGI [2]: > 100 µM | GI50 [3]: 5.33 µM | TGI [3]: > 100 µM | GI50 [4]: 6.6 µM | TGI [4]: > 100 µM | GI50 [5]: 4.97 µM | TGI [5]: > 100 µM | GI50 [6]: > 100 µM | TGI [6]: > 100 µM | GI50 [10]: 6.77 µM | TGI [10]: > 100 µM | GI50 [7]: 4.24 µM | TGI [7]: > 100 µM | GI50 [8]: 3.39 µM | TGI [8]: > 100 µM | GI50 [9]: 6.95 µM | TGI [9]: > 100 µM

COc1ccc(S(=O)(=O)N(C(C)=O)c2ccccc2/C=C/c2cc[n+]([O-])cc2)cc1
GI50 [1]: 0.56 µM | TGI [1]: > 10 µM | GI50 [2]: 0.588 µM | TGI [2]: > 10 µM | GI50 [3]: 0.762 µM | TGI [3]: > 7.66 µM | GI50 [4]: 0.742 µM | TGI [4]: > 10 µM | GI50 [5]: 0.64 µM | TGI [5]: > 6.53 µM | GI50 [6]: 1.07 µM | TGI [6]: > 10 µM | GI50 [10]: 0.955 µM | TGI [10]: > 10 µM | GI50 [7]: 0.225 µM | TGI [7]: 1.65 µM | GI50 [8]: 3.84 µM | TGI [8]: > 10 µM | GI50 [9]: 5.02 µM | TGI [9]: > 10 µM

O=C(O)c1ccc(SSc2ccc(C(=O)O)cn2)nc1
TGI [1]: > 100 µM | TGI [2]: > 100 µM | TGI [3]: > 100 µM | TGI [4]: > 100 µM | TGI [5]: > 100 µM | TGI [6]: > 100 µM | TGI [10]: > 100 µM | TGI [7]: > 100 µM | TGI [8]: > 100 µM

COc1cc(CNc2oc(-c3ccccc3)c(-c3ccccc3)c2C#N)cc(CN2CCN(C)CC2)c1O
GI50 [1]: 1.71 µM | TGI [1]: 3.42 µM | GI50 [2]: 1.68 µM | TGI [2]: 3.17 µM | GI50 [3]: 2.85 µM | TGI [3]: 10 µM | GI50 [4]: 1.32 µM | TGI [4]: 2.77 µM | GI50 [5]: 1.79 µM | TGI [5]: 4.19 µM | GI50 [6]: 1.58 µM | TGI [6]: 3.25 µM | GI50 [10]: 1.67 µM | TGI [10]: 3.18 µM | GI50 [7]: 1.87 µM | TGI [7]: 3.95 µM | GI50 [8]: 1.91 µM | TGI [8]: 4.17 µM | GI50 [9]: 1.23 µM | TGI [9]: 2.62 µM

Reference: PubChem BioAssay (NCI)
